Laboratory results: patent US12655116B2, “Substituted isophthalic acid diamides” (Bayer Aktiengesellschaft, priority 2020, dated 2026)

Columns and labels:
[1] = system: PHBPU; experiment: Post-emergence herbicidal action against PHBPU; format: in vivo, Pharbitis purpurea; settings: Ipomoea purpurea, 504 h
In short: (§1)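 Herbicidal effect was scored visually in percent after about 3 weeks in the greenhouse. Plants had been raised in sandy loam and treated post-emergence at the one-leaf stage with formulated compound at 600 to 800 l/ha water plus 0.2% wetting agent.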

[2] = system: LOLRI; experiment: Post-emergence herbicidal action against LOLRI; format: in vivo, Lolium rigidum; settings: Lolium rigidum, 504 h, dosage 80 g/ha
In short: as §1

[3] = system: AVEFA; experiment: Post-emergence herbicidal action against AVEFA; format: in vivo, Avena fatua; settings: Avena fatua, 504 h, visual assessment about 3 weeks after treatment, 100% = plants have died, 0% = like control plants
In short: as §1

[4] = system: MATIN; experiment: Post-emergence herbicidal action against MATIN; format: in vivo, Matricaria inodora; settings: Tripleurospermum inodorum, 504 h; for pest or weed control at 20 g/ha: dosage 20 g/ha; for pest or weed control at 80 g/ha: dosage 80 g/ha
In short: as §1

[5] = system: AMARE; experiment: Post-emergence herbicidal action against AMARE; format: in vivo, Amaranthus retroflexus; settings: Amaranthus retroflexus, 504 h, visual assessment about 3 weeks after treatment, 100% = plants have died, 0% = like control plants
In short: as §1

[6] = system: VIOTR; experiment: Post-emergence herbicidal action against VIOTR; format: in vivo, Viola tricolor; settings: Viola tricolor, 504 h
In short: as §1

[7] = system: VERPE; experiment: Post-emergence herbicidal action against VERPE; format: in vivo, Veronica persica; settings: Veronica persica, 504 h
In short: as §1

[8] = system: ECHCG; experiment: Pre-emergence herbicidal action against ECHCG; format: in vivo, Echinochloa crus-galli; settings: Echinochloa crus-galli, 504 h
In short: (§2)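 Herbicidal effect was assessed 3 weeks after treatment by visual comparison with untreated controls, 100% denoting dead plants. Aqueous WP or EC preparations had been applied at 600 to 800 l/ha with 0.2% wetting agent to the soil covering freshly sown seeds.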

[9] = system: MATIN; experiment: Pre-emergence herbicidal action against MATIN; format: in vivo, Matricaria inodora; settings: Tripleurospermum inodorum, 504 h; for pest or weed control at 80 g/ha: dosage 80 g/ha; for pest or weed control at 320 g/ha: dosage 320 g/ha
In short: as §2

[10] = system: HORMU; experiment: Post-emergence herbicidal action against HORMU; format: in vivo, Hordeum murinum; settings: Hordeum murinum, 504 h; for pest or weed control at 20 g/ha: dosage 20 g/ha; for pest or weed control at 80 g/ha: dosage 80 g/ha
In short: as §1

[11] = system: VERPE; experiment: Pre-emergence herbicidal action against VERPE; format: in vivo, Veronica persica; settings: Veronica persica, 504 h; for pest or weed control at 320 g/ha: dosage 320 g/ha
In short: as §2

[12] = system: VIOTR; experiment: Pre-emergence herbicidal action against VIOTR; format: in vivo, Viola tricolor; settings: Viola tricolor, 504 h; for pest or weed control at 80 g/ha: dosage 80 g/ha; for pest or weed control at 320 g/ha: dosage 320 g/ha
In short: as §2

[13] = system: POLCO; experiment: Pre-emergence herbicidal action against POLCO; format: in vivo, Polygonum convolvulus; settings: Fallopia convolvulus, 504 h, dosage 320 g/ha
In short: as §2

[14] = system: STEME; experiment: Pre-emergence herbicidal action against STEME; format: in vivo, Stellaria media; settings: Stellaria media, 504 h; for pest or weed control at 80 g/ha: dosage 80 g/ha; for pest or weed control at 320 g/ha: dosage 320 g/ha
In short: as §2

[15] = system: POLCO; experiment: Post-emergence herbicidal action against POLCO; format: in vivo, Polygonum convolvulus; settings: Fallopia convolvulus, 504 h; for pest or weed control at 20 g/ha: dosage 20 g/ha; for pest or weed control at 80 g/ha: dosage 80 g/ha
In short: as §1

[16] = system: ECHCG; experiment: Post-emergence herbicidal action against ECHCG; format: in vivo, Echinochloa crus-galli; settings: Echinochloa crus-galli, 504 h; for pest or weed control at 20 g/ha: dosage 20 g/ha; for pest or weed control at 80 g/ha: dosage 80 g/ha
In short: as §1

[17] = system: ALOMY; experiment: Pre-emergence herbicidal action against ALOMY; format: in vivo, Alopecurus myosuroides; settings: Alopecurus myosuroides, 504 h, pre-emergence; for pest or weed control at 80 g/ha: scored visually after 3 weeks vs untreated controls (100% = plants have died, 0% = like control plants); for pest or weed control at 320 g/ha: scored visually after 3 weeks, 100% = plants have died, 0% = like control plants
In short: as §2

[18] = system: SETVI; experiment: Pre-emergence herbicidal action against SETVI; format: in vivo, Setaria viridis; settings: Setaria viridis, 504 h; for pest or weed control at 80 g/ha: dosage 80 g/ha; for pest or weed control at 320 g/ha: dosage 320 g/ha
In short: as §2

[19] = system: LOLRI; experiment: Pre-emergence herbicidal action against LOLRI; format: in vivo, Lolium rigidum; settings: Lolium rigidum, 504 h, 320 g/ha
In short: as §2

[20] = system: HORMU; experiment: Pre-emergence herbicidal action against HORMU; format: in vivo, Hordeum murinum; settings: Hordeum murinum, 504 h, pre-emergence
In short: as §2

[21] = system: ALOMY; experiment: Post-emergence herbicidal action against ALOMY; format: in vivo, Alopecurus myosuroides; settings: Alopecurus myosuroides, 504 h, visual assessment about 3 weeks after treatment vs untreated controls; for pest or weed control at 20 g/ha: dosage 20 g/ha; for pest or weed control at 80 g/ha: dosage 80 g/ha
In short: as §1

[22] = system: ABUTH; experiment: Pre-emergence herbicidal action against ABUTH; format: in vivo, Abutilon theophrasti; settings: Abutilon theophrasti, 504 h; for pest or weed control at 80 g/ha: scored visually after 3 weeks vs untreated controls (100% = plants have died, 0% = like control plants); for pest or weed control at 320 g/ha: Dosage: 320 g/ha, scored visually after 3 weeks, 100% = plants have died, 0% = like control plants
In short: as §2

[23] = system: SETVI; experiment: Post-emergence herbicidal action against SETVI; format: in vivo, Setaria viridis; settings: Setaria viridis, 504 h, dosage 80 g/ha
In short: as §1

Structure (SMILES)	pest or weed control at 80 g/ha [2]	pest or weed control at 20 g/ha [3]	pest or weed control at 80 g/ha [3]	pest or weed control at 20 g/ha [4]	pest or weed control at 80 g/ha [4]	pest or weed control at 20 g/ha [5]	pest or weed control at 80 g/ha [5]	pest or weed control at 80 g/ha [6]	pest or weed control at 20 g/ha [7]	pest or weed control at 80 g/ha [7]	pest or weed control at 80 g/ha [8]	pest or weed control at 320 g/ha [8]	pest or weed control at 80 g/ha [9]	pest or weed control at 320 g/ha [9]	pest or weed control at 20 g/ha [10]	pest or weed control at 80 g/ha [10]	pest or weed control at 320 g/ha [11]	pest or weed control at 80 g/ha [12]	pest or weed control at 320 g/ha [12]	pest or weed control at 320 g/ha [13]	also measured
CNC(=O)c1c(C(F)F)ccc(C(=O)Nc2nnnn2C)c1Cl [Example 1-147]	90%	90%	90%	100%	100%	90%	90%	80%	90%	90%	100%	100%	90%	100%	80%	90%	90%	100%	100%	90%	pest or weed control at 20 g/ha ([1]; dosage 20 g/ha): 80%; pest or weed control at 80 g/ha ([1]; dosage 80 g/ha): 90%; pest or weed control at 80 g/ha [14]: 100%; pest or weed control at 320 g/ha [14]: 100%; pest or weed control at 20 g/ha [15]: 90%; pest or weed control at 80 g/ha [15]: 90%; pest or weed control at 20 g/ha [16]: 90%; pest or weed control at 80 g/ha [16]: 90%; pest or weed control at 80 g/ha [17]: 90%; pest or weed control at 320 g/ha [17]: 100%; pest or weed control at 80 g/ha [18]: 100%; pest or weed control at 320 g/ha [18]: 100%; pest or weed control at 320 g/ha [19]: 100%; pest or weed control at 80 g/ha [20]: 90%; pest or weed control at 320 g/ha [20]: 100%; pest or weed control at 20 g/ha [21]: 80%; pest or weed control at 80 g/ha [21]: 90%; pest or weed control at 80 g/ha [22]: 90%; pest or weed control at 320 g/ha [22]: 100%
CCNC(=O)c1c(C(F)(F)F)ccc(C(=O)Nc2nnnn2CC)c1SC [Example 2-82]	90%	90%	90%	90%	90%	90%	90%	80%	80%	90%	100%	100%	100%	100%	80%	90%	90%	100%	100%	90%	pest or weed control at 20 g/ha ([6]; 20 g/ha): 80%; pest or weed control at 80 g/ha [14]: 100%; pest or weed control at 320 g/ha [14]: 100%; pest or weed control at 80 g/ha [15]: 80%; pest or weed control at 20 g/ha [16]: 80%; pest or weed control at 80 g/ha [16]: 80%; pest or weed control at 320 g/ha [17]: 100%; pest or weed control at 80 g/ha [18]: 100%; pest or weed control at 320 g/ha [18]: 100%; pest or weed control at 320 g/ha [19]: 90%; pest or weed control at 80 g/ha [20]: 80%; pest or weed control at 320 g/ha [20]: 100%; pest or weed control at 80 g/ha [21]: 90%; pest or weed control at 80 g/ha [22]: 100%; pest or weed control at 320 g/ha [22]: 100%
CCNC(=O)c1c(C(F)F)ccc(C(=O)Nc2nnnn2CC)c1Cl [Example 2-148]	80%	90%	90%	90%	90%	90%	90%	80%	80%	90%	100%	100%	100%	100%	80%	90%	100%	100%	100%	100%	pest or weed control at 80 g/ha [23]: 80%; pest or weed control at 80 g/ha ([11]; dosage 80 g/ha): 80%; pest or weed control at 80 g/ha [14]: 90%; pest or weed control at 320 g/ha [14]: 100%; pest or weed control at 20 g/ha [15]: 90%; pest or weed control at 80 g/ha [15]: 90%; pest or weed control at 20 g/ha [16]: 80%; pest or weed control at 80 g/ha [16]: 90%; pest or weed control at 80 g/ha [17]: 90%; pest or weed control at 320 g/ha [17]: 100%; pest or weed control at 80 g/ha [18]: 100%; pest or weed control at 320 g/ha [18]: 100%; pest or weed control at 320 g/ha [19]: 90%; pest or weed control at 80 g/ha [20]: 90%; pest or weed control at 320 g/ha [20]: 100%; pest or weed control at 20 g/ha [21]: 80%; pest or weed control at 80 g/ha [21]: 90%; pest or weed control at 80 g/ha [22]: 100%; pest or weed control at 320 g/ha [22]: 100%
